# Measurements reported in patent US20070105114A1, “Biomarkers of cyclin-dependent kinase modulation” (priority 2003, published 2007).
# Where a name gives a salt, the structure may show the parent alone.
# Assays:
# W28729 = W28729 expression by real-time quantitative PCR in PBMC treated in vitro; assay type: cell-based; details: human PBMC in vitro, 10n-M, 4 hours
# Method: Taqman® reactions were prepared as follows: 100 ng total RNA; 25 nM-750 nM Forward Primer; 25 nM-750 nM Reverse Primer; 200 nM-400 nM Taqman® Probe (fluorescent dye labeled oligonucleotide primer); 1X Buffer A (Applied Biosystems, Foster City, Calif., USA); 5.5 mM MgCl2; 300 μM DATP, dGTP, dTTP, dCTP; 1 U Amplitaq Gold; 20 U Superscript 2; 1 U RNase Inhibitor. Real-time PCR was performed using an Applied Biosystems 7700 Sequence Detection System. Conditions were as follows: 48° C. for 20 minutes (reverse transcription), 95° C. for 10 minutes (denaturation and activation of Amplitaq Gold), 40 cycles of PCR (95° C. for 15 seconds, 60° C. for 1 minutes).
# The Sequence Detection System generates a Ct (threshold cycle) value that is used to calculate a concentration for each input messenger RNA template. Messenger RNA levels for each gene or fragment thereof of interest were normalized to GAPDH message levels to compensate for variations in total RNA quantity in the input sample. This was done by generating GAPDH Ct values for each cell line. Ct values for the gene or fragments thereof of interest and GAPDH were inserted into the δδCt equation: Relative Quantity of Nucleic Acid Template=2^δδCt=2^(δCta-δCtb)(δCta=Ct target−Ct GAPDH, δCtb=Ct reference−Ct GAPDH) which was used to calculate a normalized relative message level. […]
# A2780 xenografts = assay: Anti-tumor efficacy in A2780 xenografts (minimum efficacious dose); assay type: in vivo, mouse
# Method: The human ovarian carcinoma xenograft A2780s were maintained in Balb/c nu/nu nude mice. Tumors were propagated as subcutaneous (sc) transplants using tumor fragments obtained from donor mice. For the cdk2 inhibitor treatment, tumors were allowed to grow to the pre-determined size window of approximately 100-200 mg (tumors outside the range were excluded) and animals were evenly distributed to various treatment and control groups (n=6). Treatment of each animal was based on individual body weight. The cdk2 inhibitor was first dissolved in a mixture of Cremophor®/ethanol (50:50). One hour prior to administration, the cdk2 inhibitor was diluted with water so that the dosing solutions contained the specified excipient composition, i.e., Cremophor®/ethanol/water (1:1:8, v/v). The volume of all compounds injected was 0.01 ml/gm of mice. The cdk2 inhibitor was administered as a bolus injection intraperitoneal at doses of 36 and 18 mg/kg. Tumor and plasma were sampled at the time points of 4, 7, and 24 hour post treatment. Plasma sample was frozen immediately at −80° C. for pharmacokinetic analysis, and tumor sample was preserved in RNAase free buffer for pharmacogenomic analysis. […] At the minimum efficacious dose (MED) of 18 mg/kg/day, the induction was sustained for more than 6 hours. […]
structure (smiles),measurement,setting,value
"CC(C)(C)c1cnc(CSc2cnc(NC(=O)C3CCNCC3)s2)o1 [cdk2 inhibitor, N-5-[[5-(1,1-Dimethylethyl)-2-oxazolyl]methyl]thio]-2-thiazolyl-4-piperidinecarboxamide, 0.5-L-tartaric acid salt]",W28729 expression change,W28729,Upregulation of W28729 expression
same,minimum efficacious dose (MED),A2780 xenografts; bolus i.p.,18 mg/kg/day
same,minimum efficacious dose,A2780 xenografts; infusion regimen,40 mg/kg
